Common to all, as to type: functional, cell-based
One experiment deals with A549. Description: Antiproliferative activity against human A549 cells after 48 hrs by MTT assay. Conditions: A549, 48 h.
The test system of a further experiment is MCF7. The experiment can be described thus: Antiproliferative activity against human MCF7 cells after 48 hrs by MTT assay. The settings on record: MCF7, 48 h. A general note: Tetrazolium assays rely on reduction of a dye to a coloured formazan, in cell work by metabolically active cells.
The next experiment deals with HepG2. Description: Antiproliferative activity against human HepG2 cells after 48 hrs by MTT assay. Conditions: HepG2, 48 h.
The next experiment has as its system HCT-116. The experiment can be described thus: Antiproliferative activity against human HCT116 cells after 48 hrs by MTT assay. Conditions: HCT-116, 48 h.

The term IC50 denotes the concentration at which inhibition is half-maximal. Low values mean higher potency, high ones lower potency. As for `CCOC(=O)C1=C(N)Oc2c(N)cc3nc4ccccc4nc3c2C1c1ccccc1[N+](=O)[O-]` (centres undefined), the IC50 turned out to be 14.5 µM in the experiment with A549, 18.6 µM with MCF7, 7.4 µM in the experiment with HepG2 and 18.2 µM with HCT-116.

Turning to `COc1ccc(C2C(C#N)=C(N)Oc3c(N)cc4nc5ccccc5nc4c32)cc1OC` (centres undefined), the IC50 in the experiment on A549, with MCF7, in the experiment with HepG2 and with HCT-116 was over 50 µM in each case.

Consider `CCc1ccc(C2C(C#N)=C(N)Oc3c(N)cc4nc5ccccc5nc4c32)cc1` (centres undefined), for which the IC50 with A549 is 23.4 µM; in the experiment on MCF7, 19.1 µM; in the experiment with HepG2, 15.5 µM; in the experiment on HCT-116, 5.5 µM.

With `CCOC(=O)C1=C(N)Oc2c(N)cc3nc4ccccc4nc3c2C1c1cc(Br)ccc1OC` (centres undefined), the IC50 is over 50 µM in the experiment with A549, over 50 µM in the experiment with MCF7, 13.9 µM with HepG2 and over 50 µM in the experiment on HCT-116.

As to `CCOC(=O)C1=C(N)Oc2c(N)cc3nc4ccccc4nc3c2C1c1ccc(CC)cc1` (centres undefined), the IC50 is 39.1 µM in the experiment on A549, over 50 µM in the experiment with MCF7, 30.4 µM in the experiment on HepG2 and 15.1 µM with HCT-116.

For `N#CC1=C(N)Oc2c(N)cc3nc4ccccc4nc3c2C1c1c(Cl)cccc1Cl` (centres undefined), the IC50 in the experiment on A549 was 12 µM; in the experiment on MCF7, 40.2 µM; in the experiment on HepG2 it was over 50 µM; with HCT-116, 10.2 µM.

On to `COc1ccc(C2C(C#N)=C(N)Oc3c(N)cc4nc5ccccc5nc4c32)c(OC)c1OC` (centres undefined), for which the IC50 with A549 was 20.3 µM; in the experiment on MCF7, 28.1 µM; in the experiment on HepG2, 15.3 µM; with HCT-116, 47.1 µM.

For `CCOC(=O)C1=C(N)Oc2c(N)cc3nc4ccccc4nc3c2C1c1cc(OC)c(Br)c(OC)c1` (centres undefined), the IC50 with A549 is 13.5 µM; with MCF7, over 50 µM; in the experiment with HepG2 it was 10.1 µM; in the experiment with HCT-116, 20.1 µM.

As for `CCOC(=O)C1=C(N)Oc2c(N)cc3nc4ccccc4nc3c2C1c1ccc(OC)c(F)c1` (centres undefined), the IC50 with A549 is 24.8 µM; in the experiment on MCF7, over 50 µM; in the experiment with HepG2 it was 8.5 µM; in the experiment on HCT-116, 20.5 µM.

As for `CCOC(=O)C1=C(N)Oc2c(N)cc3nc4ccccc4nc3c2C1c1ccc(Cl)cc1Cl` (centres undefined), the IC50 is 19.1 µM in the experiment with A549, over 50 µM in the experiment on MCF7, 11.5 µM with HepG2 and 12.1 µM in the experiment with HCT-116.

With `CCOC(=O)C1=C(N)Oc2c(N)cc3nc4ccccc4nc3c2C1c1ccc(Br)cc1` (centres undefined), the IC50 with A549 is 17.3 µM; in the experiment with MCF7, over 50 µM; in the experiment with HepG2, 10.6 µM; in the experiment on HCT-116, 20.2 µM.

Consider `COc1ccc(C2C(C#N)=C(N)Oc3c(N)cc4nc5ccccc5nc4c32)cc1F` (centres undefined), for which the IC50 is 11.3 µM in the experiment with A549, over 50 µM with MCF7, 7.8 µM in the experiment on HepG2 and 20.4 µM in the experiment with HCT-116.

Turning to `N#CC1=C(N)Oc2c(N)cc3nc4ccccc4nc3c2C1c1cccc(Cl)c1` (centres undefined), the IC50 was 21.4 µM in the experiment with A549, 39.1 µM with MCF7, 9.4 µM in the experiment on HepG2 and 15.1 µM in the experiment on HCT-116.

For the compound `COc1cc(OC)c(C2C(C#N)=C(N)Oc3c(N)cc4nc5ccccc5nc4c32)cc1OC` (centres undefined), the IC50 in the experiment with A549 was 44.6 µM; in the experiment on MCF7, over 50 µM; with HepG2, 23.1 µM; in the experiment on HCT-116, 30.6 µM.

Turning to `CCOC(=O)C1=C(N)Oc2c(N)cc3nc4ccccc4nc3c2C1c1ccc(Cl)c(Cl)c1` (centres undefined), the 50% inhibitory concentration (IC50) in the experiment with A549 is 17.1 µM; in the experiment with MCF7 it was 8.4 µM; with HepG2 it was 24.2 µM; in the experiment on HCT-116, over 50 µM.

For `CCOC(=O)C1=C(N)Oc2c(N)cc3nc4ccccc4nc3c2C1c1ccc(Cl)cc1` (centres undefined), the IC50 stood at 5.5 µM with A549, 10 µM with MCF7, 7.2 µM in the experiment with HepG2 and 8.2 µM in the experiment with HCT-116.

Consider `CC(C)c1ccc(C2C(C#N)=C(N)Oc3c(N)cc4nc5ccccc5nc4c32)cc1` (centres undefined), for which the IC50 with A549 was 14.5 µM; in the experiment on MCF7, over 50 µM; in the experiment on HepG2, 16.2 µM; with HCT-116, 20.6 µM.

On to `CCOC(=O)C1=C(N)Oc2c(N)cc3nc4ccccc4nc3c2C1c1ccccc1F` (centres undefined), for which the IC50 in the experiment on A549 turned out to be 24.5 µM; with MCF7, 18.7 µM; in the experiment with HepG2, 6.3 µM; in the experiment on HCT-116, 35.6 µM.

`CCOC(=O)C1=C(N)Oc2c(N)cc3nc4ccccc4nc3c2C1c1cccc(Br)c1` (centres undefined): the IC50 in the experiment on A549 is 13.4 µM; in the experiment with MCF7 it was over 50 µM; with HepG2, over 50 µM; with HCT-116 it was 10.8 µM.

Turning to `CCOC(=O)C1=C(N)Oc2c(N)cc3nc4ccccc4nc3c2C1c1cccc([N+](=O)[O-])c1` (centres undefined), the IC50 in the experiment on A549 was over 50 µM; with MCF7 it was 20.2 µM; in the experiment on HepG2, 7.3 µM; in the experiment on HCT-116, over 50 µM.

For `COc1cc(C2C(C#N)=C(N)Oc3c(N)cc4nc5ccccc5nc4c32)cc(Br)c1OC` (centres undefined), the IC50 came out at 5.3 µM in the experiment with A549, 25.6 µM in the experiment on MCF7, 6.2 µM in the experiment on HepG2 and 12.1 µM in the experiment with HCT-116.

`CCOC(=O)C1=C(N)Oc2c(N)cc3nc4ccccc4nc3c2C1c1c(Cl)cccc1Cl` (centres undefined): the IC50 in the experiment on A549 is over 50 µM; with MCF7, over 50 µM; with HepG2 it was 40.1 µM; in the experiment with HCT-116 it was 12.4 µM.

Take `N#CC1=C(N)Oc2c(N)cc3nc4ccccc4nc3c2C1c1cccc([N+](=O)[O-])c1` (centres undefined): the IC50 with A549 is 26.6 µM; in the experiment with MCF7, 20.3 µM; in the experiment with HepG2, over 50 µM; in the experiment with HCT-116, over 50 µM.

In the case of `N#CC1=C(N)Oc2c(N)cc3nc4ccccc4nc3c2C1c1ccccc1Cl` (centres undefined), the IC50 in the experiment on A549 came out at 6.3 µM; in the experiment with MCF7, 25.1 µM; in the experiment with HepG2, 8.4 µM; with HCT-116, 7.4 µM.

On to `CCOC(=O)C1=C(N)Oc2c(N)cc3nc4ccccc4nc3c2C1c1cc(Br)c(OC)c(OC)c1` (centres undefined), for which the IC50 in the experiment with A549 was 10.3 µM; in the experiment with MCF7, over 50 µM; with HepG2 it was 10.3 µM; in the experiment with HCT-116, 9.7 µM.

Turning to `COc1cc(C2C(C#N)=C(N)Oc3c(N)cc4nc5ccccc5nc4c32)cc(OC)c1O` (centres undefined), the IC50 in the experiment with A549 was over 50 µM; in the experiment on MCF7, 28.8 µM; in the experiment on HepG2, over 50 µM; in the experiment on HCT-116, 7.6 µM.

On to `N#CC1=C(N)Oc2c(N)cc3nc4ccccc4nc3c2C1c1ccc([N+](=O)[O-])cc1` (centres undefined), for which the IC50 in the experiment with A549 was 15.9 µM; in the experiment on MCF7, over 50 µM; in the experiment with HepG2, 18.1 µM; with HCT-116, 14.5 µM.

As for `N#CC1=C(N)Oc2c(N)cc3nc4ccccc4nc3c2C1c1ccc(Br)cc1` (centres undefined), the IC50 with A549 was 11.2 µM; in the experiment on MCF7, over 50 µM; with HepG2 it was 10.3 µM; in the experiment on HCT-116, 6.3 µM.

For the compound `COc1ccc(Br)cc1C1C(C#N)=C(N)Oc2c(N)cc3nc4ccccc4nc3c21` (centres undefined), the IC50 in the experiment on A549 was 14.1 µM; with MCF7, over 50 µM; in the experiment with HepG2, 11.7 µM; in the experiment with HCT-116 it was 30.1 µM.

With `CCOC(=O)C1=C(N)Oc2c(N)cc3nc4ccccc4nc3c2C1c1ccc([N+](=O)[O-])cc1` (centres undefined), the IC50 in the experiment on A549 is 18.8 µM; with MCF7, 13.2 µM; with HepG2, 6.7 µM; in the experiment on HCT-116 it was 16.4 µM.

With `COc1cc(C2C(C#N)=C(N)Oc3c(N)cc4nc5ccccc5nc4c32)cc(OC)c1Br` (centres undefined), the IC50 was 24.2 µM with A549, over 50 µM in the experiment on MCF7, 12.4 µM in the experiment on HepG2 and 18.2 µM with HCT-116.

For the origin of these results see ChEMBL document CHEMBL3992500, “Design, facile synthesis and biological evaluations of novel pyrano[3,2-a]phenazine hybrid molecules as antitumor agents” (Eur J Med Chem, 2017).
